Source: US7357930B1, “Methods and formulations for targeting infectious agents bearing host cell proteins” (Infectio Recherche Inc., priority 1999, dated 2008)
Like-named read-outs stand apart in the source and are kept apart here.

Experiments:
[1] = system: HIV-1-based luciferase reporter viruses with HXB2, AML-V or VSV-G env; type: cell-based
1G5 cells = experiment: Cellular viability / toxicity in 1G5 cells; type: cell-based; details: 72 h, concentration range tested (0-10 μg/ml), data not shown
Mono Mac 1 cell line = experiment: Toxicity in Mono Mac 1 cells; type: cell-based; details: data not shown
HIV-1NL4-3 = experiment: AmB inhibition of HIV-1NL4-3 replication in 1G5 cells (luciferase activity)
Protocol: In a second set of experiments, AmB and the virus were added simultaneously to cells and incubation was made during the first two hours of infection (open square).
Infection was monitored by measuring the luciferase activity. […] Thereafter, an aliquot of this cell lysate (20 μl) was mixed with 100 μl of luciferase assay buffer and activity was evaluated using a microplate luminometer.

Compound	Area under the curve of indinavir (Brachial lymph nodes)	Area under the curve of indinavir (Cervical lymph nodes)	Area under the curve of indinavir (Inguinal lymph nodes)	Area under the curve of indinavir (Liver)	Area under the curve of indinavir (Mesenteric lymph nodes)	Area under the curve of indinavir (Plasma)	Area under the curve of indinavir (Popliteal lymph nodes)	Area under the curve of indinavir (Spleen)	drug levels in lymphoid tissues (all lymphoid tissues)	inhibition of infection with pseudotyped virions [1]	cellular viability (1G5 cells)	toxicity (Mono Mac 1 cell line)	concentration giving complete inhibition of HIV-1NL4-3 replication (HIV-1NL4-3; 1G5 cells pretreated with AmB)	inhibition of viral replication (HIV-1NL4-3; AmB added to infected cells after adsorption, 10 μg AmB/ml, 72 h)	concentration giving complete abrogation of viral replication (HIV-1NL4-3; cell-free virus pretreated 1 h at 37° C.)	viral particles inactivated (HIV-1NL4-3; cell-free virus pretreated 1 h at 37° C. with 1 μg AmB/ml)	concentration giving complete inhibition of HIV-1 replication (HIV-1NL4-3; virus and AmB added simultaneously to cells (no pretreatment))
CC(C)(C)NC(=O)[C@@H]1CN(Cc2cccnc2)CCN1C[C@@H](O)C[C@@H](Cc1ccccc1)C(=O)N[C@H]1c2ccccc2C[C@H]1O [Free indinavir, indinavir]	4.9 μmoles lipids/g tissues/h	7.6 μmoles lipids/g tissues/h	4.1 μmoles lipids/g tissues/h	35.0 μmoles lipids/g tissues/h	6.4 μmoles lipids/g tissues/h	2.3 μmoles lipids/g tissues/h	4.5 μmoles lipids/g tissues/h	5.3 μmoles lipids/g tissues/h	very low drug levels	–	–	–	–	–	–	–	–
C[C@@H]1[C@H](O)[C@@H](C)/C=C/C=C/C=C/C=C/C=C/C=C/C=C/[C@H](O[C@@H]2O[C@H](C)[C@@H](O)[C@H](N)[C@@H]2O)C[C@@H]2O[C@](O)(C[C@@H](O)C[C@@H](O)[C@H](O)CC[C@@H](O)C[C@@H](O)CC(=O)O[C@H]1C)C[C@H](O)[C@H]2C(=O)O [AmB, amphotericin B]	–	–	–	–	–	–	–	–	–	efficient to inhibit infection	did not affect the cellular viability	without significant toxicity	10 μg AmB/ml	40%	5 μg AmB/ml	About 50%	10 μg AmB/ml
